Measurements taken from patent publication US9815802B2, “Herbicidally active N-(1-methyltetrazol-5-yl)benzoic acid amides” (BAYER CROPSCIENCE AKTIENGESELLSCHAFT, priority 2014, dated 2017).

Key:
Assay type in all cases: in vivo
[1] = tested on: Stellaria media; test: Pre-emergence herbicidal action against STEME
From the text: (§1) Pre-Emergence Herbicidal Action Against Harmful Plants
(§2) Seeds of monocotyledonous and dicotyledonous weed plants and crop plants are laid out in wood-fiber pots in sandy loam and covered with soil. The compounds of the invention, formulated in the form of wettable powders (WP) or as emulsion concentrates (EC), are then applied to the surface of the covering soil in the form of an aqueous suspension or emulsion at a water application rate equating to 600 to 800 I/ha, with addition of 0.2% wetting agent. After the treatment, the pots are placed in a greenhouse and kept under good growth conditions for the trial plants. The damage to the test plants is scored visually after a test period of 3 weeks by comparison with untreated controls (herbicidal activity in percent (%): 100% activity=the plants have died, 0% activity=like control plants). For example, compounds no. 1-001, 1-002, 1-003, 1-004, 1-011, 1-012, 1-021, 1-022, 1-031, 1-032, 1-041, 1-042 and 1-044 at an application rate of 320 g/ha each have at least 80% efficacy against Echinocloa crusgalli, Abutilon theophrasti, Amaranthus retroflexus and Matricaria inodora.

[2] = tested on: Setaria viridis; test: Pre-emergence herbicidal action against SETVI
From the text: as §1, §2

[3] = tested on: Alopecurus myosuroides; test: Post-emergence herbicidal action against ALOMY
Protocol: (§3) Post-Emergence Herbicidal Action Against Harmful Plants Seeds of monocotyledonous and dicotyledonous weed and crop plants are laid out in sandy loam in wood-fiber pots, covered with soil and cultivated in a greenhouse under good growth conditions. 2 to 3 weeks after sowing, the test plants are treated at the one-leaf stage. The compounds of the invention, formulated in the form of wettable powders (WP) or as emulsion concentrates (EC), are then sprayed onto the green parts of the plants in the form of an aqueous suspension or emulsion at a water application rate equating to 600 to 800 I/ha, with addition of 0.2% wetting agent. After the test plants have been left to stand in the greenhouse under optimal growth conditions for about 3 weeks, the action of the preparations is assessed visually in comparison to untreated controls (herbicidal action in percent (%): 100% activity=the plants have died, 0% activity=like control plants).

[4] = tested on: Avena fatua; test: Post-emergence herbicidal action against AVEFA
Protocol: as §3

[5] = tested on: Stellaria media; test: Post-emergence herbicidal action against STEME; conditions: dosage 5 g/ha
Protocol: as §3

[6] = tested on: Setaria viridis; test: Post-emergence herbicidal action against SETVI
Protocol: as §3

[7] = tested on: Polygonum convolvulus; test: Post-emergence herbicidal action against POLCO
Protocol: as §3

[8] = tested on: Pharbitis purpureum; test: Pre-emergence herbicidal action against PHBPU; conditions: dosage 320 g/ha
From the text: as §1, §2

[9] = tested on: Avena fatua; test: Pre-emergence herbicidal action against AVEFA; conditions: dosage 320 g/ha
From the text: as §1, §2

[10] = tested on: Polygonum convolvulus; test: Pre-emergence herbicidal action against POLCO; conditions: dosage 320 g/ha
From the text: as §1, §2

[11] = tested on: Abutilon theophrasti; test: Post-emergence herbicidal action against ABUTH; conditions: dosage 80 g/ha
Protocol: as §3

[12] = tested on: Echinochloa crus galli; test: Post-emergence herbicidal action against ECHCG; conditions: dosage 80 g/ha
Protocol: as §3

COSc1c(C)ccc(C(=O)Nc2nnnn2C)c1I
Activity against STEME ([1]; dosage 320 g/ha): 70% | Activity against SETVI ([2]; dosage 320 g/ha): 30%

COSc1c(C)ccc(C(=O)Nc2nnnn2C)c1OC
Activity against STEME ([1]; dosage 320 g/ha): 60% | Activity against SETVI ([2]; dosage 320 g/ha): 40%

COSc1c(C=O)ccc(C(=O)Nc2nnnn2C)c1C
Activity against STEME ([1]; dosage 320 g/ha): 0% | Activity against SETVI ([2]; dosage 320 g/ha): 0%

CCOSc1c(C)ccc(C(=O)Nc2nnnn2C)c1C
Activity against ALOMY ([3]; dosage 80 g/ha): 90% | Activity against AVEFA ([4]; dosage 80 g/ha): 100%

CCc1ccc(C(=O)Nc2nnnn2C)c(C)c1SOC
Activity against STEME [5]: 100% | Activity against SETVI ([6]; dosage 5 g/ha): 100%

COSc1c(C(C)C)ccc(C(=O)Nc2nnnn2C)c1C
Activity against ALOMY ([3]; dosage 5 g/ha): 60% | Activity against AVEFA ([4]; dosage 5 g/ha): 40%

Cc1c(C(=O)Nc2nnnn2C)ccc(C(C)C)c1S(C)(=O)=O
Activity against ALOMY ([3]; Table S, dosage 5 g/ha): 60% | Activity against AVEFA ([4]; Table S, dosage 5 g/ha): 30%

Cc1c(C(=O)Nc2nnnn2C)ccc(I)c1S(C)(=O)=O
Activity against ALOMY ([3]; Table S, dosage 5 g/ha): 20% | Activity against AVEFA ([4]; Table S, dosage 5 g/ha): 0%

Cc1c(C(=O)Nc2nnnn2C)ccc(C(F)(F)F)c1S(C)(=O)=O
Activity against ALOMY ([3]; Table S, dosage 5 g/ha): 30% | Activity against AVEFA ([4]; Table S, dosage 5 g/ha): 0%

CCc1c(C(=O)Nc2nnnn2C)ccc(Cl)c1SOC
Activity against POLCO ([7]; Table V, dosage 5 g/ha): 20%

CCc1c(C(=O)Nc2nnnn2C)ccc(Br)c1S(C)(=O)=O
Activity against POLCO ([7]; Table W, dosage 20 g/ha): 40%

CCOSc1c(C(F)(F)F)ccc(C(=O)Nc2nnnn2C)c1CC
Activity against POLCO ([7]; Table X, dosage 20 g/ha): 20%

CCc1ccc(C(=O)Nc2nnnn2C)c(CC)c1S(=O)(=O)CC
Activity against POLCO ([7]; Table Y, dosage 20 g/ha): 100%

CCc1c(C(=O)Nc2nnnn2C)ccc(C(F)(F)F)c1S(=O)(=O)CC
Activity against POLCO ([7]; Table Y, dosage 20 g/ha): 80%

Cc1ccc(C(=O)Nc2nnnn2C)c(C)c1[S+](C)[O-] (centres unmarked) [1-001, 2,4-Dimethyl-3-(methylsulfinyl)-N-(1-methyl-1H-tetrazol-5-yl)benzamide]
Activity against STEME ([1]; dosage 320 g/ha): 90% | Activity against SETVI ([2]; dosage 320 g/ha): 100%

CCS(=O)(=O)c1c(C)ccc(C(=O)Nc2nnnn2C)c1C [1-004]
Activity against PHBPU [8]: 80% | Activity against AVEFA [9]: 90%

CCc1ccc(C(=O)Nc2nnnn2C)c(C)c1S(C)(=O)=O [1-012]
Activity against STEME ([1]; dosage 80 g/ha): 90% | Activity against SETVI ([2]; dosage 80 g/ha): 100%

CCc1c(C(=O)Nc2nnnn2C)ccc(C)c1S(C)(=O)=O [1-032]
Activity against PHBPU [8]: 80% | Activity against AVEFA [9]: 80%

CCc1ccc(C(=O)Nc2nnnn2C)c(CC)c1[S+](C)[O-] (centres unmarked) [1-041]
Activity against POLCO [10]: 80% | Activity against PHBPU [8]: 80%

CCc1ccc(C(=O)Nc2nnnn2C)c(CC)c1S(C)(=O)=O [1-042]
Activity against POLCO [10]: 100% | Activity against PHBPU [8]: 100%

Cc1c(C(=O)Nc2nnnn2C)cccc1S(C)(=O)=O [4-080]
Activity against STEME ([1]; dosage 80 g/ha): 50% | Activity against SETVI ([2]; dosage 80 g/ha): 20%

CCc1c(C(=O)Nc2nnnn2C)ccc(Cl)c1S(C)(=O)=O [4-192, reference compound]
Activity against POLCO [10]: 60% | Activity against PHBPU [8]: 80%

COc1ccc(C(=O)Nc2nnnn2C)c(C)c1S(C)(=O)=O [4-439]
Activity against STEME ([1]; dosage 80 g/ha): 70% | Activity against SETVI ([2]; dosage 80 g/ha): 0% | Activity against PHBPU [8]: 60% | Activity against AVEFA [9]: 50%

CCc1c(C(=O)Nc2nnnn2C)ccc(Br)c1SOC [4-503, reference compound]
Activity against POLCO [10]: 60% | Activity against PHBPU [8]: 50%

Cc1ccc(C(=O)Nc2nnnn2C)c(I)c1S(C)(=O)=O [4-791]
Activity against PHBPU [8]: 30% | Activity against AVEFA [9]: 0%

CCS(=O)(=O)c1c(C)ccc(C(=O)Nc2nnnn2C)c1I [4-794]
Activity against PHBPU [8]: 60% | Activity against AVEFA [9]: 10%

COSc1c(C)ccc(C(=O)Nc2nnnn2C)c1[N+](=O)[O-] [4-796]
Activity against STEME ([1]; dosage 320 g/ha): 50% | Activity against SETVI ([2]; dosage 320 g/ha): 0%

Cc1ccc(C(=O)Nc2nnnn2C)c([N+](=O)[O-])c1S(C)(=O)=O [4-797]
Activity against PHBPU [8]: 0% | Activity against AVEFA [9]: 0%

CCOSc1c(C)ccc(C(=O)Nc2nnnn2C)c1[N+](=O)[O-] [4-799]
Activity against STEME ([1]; dosage 320 g/ha): 70% | Activity against SETVI ([2]; dosage 320 g/ha): 0%

COc1c(C(=O)Nc2nnnn2C)ccc(C)c1S(C)(=O)=O [4-811]
Activity against PHBPU [8]: 70% | Activity against AVEFA [9]: 60%

CCOSc1c(CC)ccc(C(=O)Nc2nnnn2C)c1CC [drawing 36]
Activity against POLCO [10]: 100% | Activity against PHBPU [8]: 100%

CCc1c(C(=O)Nc2nnnn2C)ccc(Cl)c1S(=O)(=O)CC [drawing 37, reference compound]
Activity against POLCO [10]: 60% | Activity against PHBPU [8]: 80%

COSc1c(C)ccc(C(=O)Nc2nnnn2C)c1C [drawing 38]
Activity against ABUTH [11]: 100% | Activity against ECHCG [12]: 100% | Activity against SETVI ([6]; dosage 80 g/ha): 100%

COSc1c(C)ccc(C(=O)Nc2nnnn2C)c1C [drawing 39, reference compound]
Activity against ABUTH [11]: 80% | Activity against ECHCG [12]: 40% | Activity against SETVI ([6]; dosage 80 g/ha): 20%

CCOSc1c(C)ccc(C(=O)Nc2nnnn2C)c1[N+](=O)[O-] [drawing 43, reference compound]
Activity against ALOMY ([3]; dosage 80 g/ha): 10% | Activity against AVEFA ([4]; dosage 80 g/ha): 0%

CCS(=O)(=O)c1c(C)ccc(C(=O)Nc2nnnn2C)c1C [drawing 45]
Activity against ALOMY ([3]; dosage 80 g/ha): 90% | Activity against AVEFA ([4]; dosage 80 g/ha): 80%

CCS(=O)(=O)c1c(C)ccc(C(=O)Nc2nnnn2C)c1C [drawing 46, reference compound]
Activity against ALOMY ([3]; dosage 80 g/ha): 40% | Activity against AVEFA ([4]; dosage 80 g/ha): 20%

COSc1c(S(C)(=O)=O)ccc(C(=O)Nc2nnnn2C)c1C [drawing 50, reference compound]
Activity against STEME [5]: 80% | Activity against SETVI ([6]; dosage 5 g/ha): 40%

CCc1ccc(C(=O)Nc2nnnn2C)c(C)c1S(C)(=O)=O [drawing 51]
Activity against ALOMY ([3]; dosage 5 g/ha): 60% | Activity against AVEFA ([4]; dosage 5 g/ha): 80%

Cc1c(C(=O)Nc2nnnn2C)ccc(S(C)(=O)=O)c1S(C)(=O)=O [drawing 52, reference compound]
Activity against ALOMY ([3]; dosage 5 g/ha): 30% | Activity against AVEFA ([4]; dosage 5 g/ha): 10%

COSc1c(S(C)(=O)=O)ccc(C(=O)Nc2nnnn2C)c1C [drawing 55, reference compound]
Activity against ALOMY ([3]; dosage 5 g/ha): 0% | Activity against AVEFA ([4]; dosage 5 g/ha): 0%

Cc1c(C(=O)Nc2nnnn2C)ccc(S(C)(=O)=O)c1S(C)(=O)=O [drawing 60]
Activity against ALOMY ([3]; Table S, dosage 5 g/ha): 30% | Activity against AVEFA ([4]; Table S, dosage 5 g/ha): 10%

CCc1c(C(=O)Nc2nnnn2C)ccc(C)c1SOC [drawing 61]
Activity against ECHCG ([12]; Table T): 90% | Activity against SETVI ([6]; Table T, dosage 80 g/ha): 80%

COSc1c(C)ccc(C(=O)Nc2nnnn2C)c1C [drawing 62]
Activity against ECHCG ([12]; Table T): 40% | Activity against SETVI ([6]; Table T, dosage 80 g/ha): 20%

COSc1c(C)ccc(C(=O)Nc2nnnn2C)c1[N+](=O)[O-] [drawing 63]
Activity against ECHCG ([12]; Table T): 20% | Activity against SETVI ([6]; Table T, dosage 80 g/ha): 0%

Cc1ccc(C(=O)Nc2nnnn2C)c([N+](=O)[O-])c1S(C)(=O)=O [drawing 66]
Activity against ECHCG ([12]; Table U): 0% | Activity against SETVI ([6]; Table U, dosage 80 g/ha): 0%

CCc1c(C(=O)Nc2nnnn2C)ccc(C)c1SOC [drawing 67]
Activity against POLCO ([7]; Table V, dosage 5 g/ha): 60%

CCc1c(C(=O)Nc2nnnn2C)ccc(Br)c1SOC [drawing 69]
Activity against POLCO ([7]; Table V, dosage 5 g/ha): 20%

CCc1c(C(=O)Nc2nnnn2C)ccc(C)c1S(C)(=O)=O [drawing 70]
Activity against POLCO ([7]; Table W, dosage 20 g/ha): 70%

CCc1c(C(=O)Nc2nnnn2C)ccc(Cl)c1S(C)(=O)=O [drawing 71]
Activity against POLCO ([7]; Table W, dosage 20 g/ha): 50%

CCOSc1c(CC)ccc(C(=O)Nc2nnnn2C)c1CC [drawing 73]
Activity against POLCO ([7]; Table X, dosage 20 g/ha): 60%

CCc1c(C(=O)Nc2nnnn2C)ccc(Cl)c1S(=O)(=O)CC [drawing 76]
Activity against POLCO ([7]; Table Y, dosage 20 g/ha): 70%

CCOSc1c(OC)ccc(C(=O)Nc2nnnn2C)c1C [reference compound]
Activity against ALOMY ([3]; dosage 80 g/ha): 40% | Activity against AVEFA ([4]; dosage 80 g/ha): 20%

CCS(=O)(=O)c1c(C)ccc(C(=O)Nc2nnnn2C)c1[N+](=O)[O-] [reference compound]
Activity against ALOMY ([3]; dosage 80 g/ha): 10% | Activity against AVEFA ([4]; dosage 80 g/ha): 0%

COSc1c(C(F)(F)F)ccc(C(=O)Nc2nnnn2C)c1C [reference compound]
Activity against STEME [5]: 80% | Activity against SETVI ([6]; dosage 5 g/ha): 80%

Cc1c(C(=O)Nc2nnnn2C)ccc(Cl)c1S(C)(=O)=O [reference compound]
Activity against ALOMY ([3]; dosage 5 g/ha): 20% | Activity against AVEFA ([4]; dosage 5 g/ha): 20%

COSc1cccc(C(=O)Nc2nnnn2C)c1C [reference compound]
Activity against ALOMY ([3]; dosage 5 g/ha): 10% | Activity against AVEFA ([4]; dosage 5 g/ha): 20%
